According to patent US9982019B2, “Glycopeptide compound or pharmaceutical salt thereof and method for preparing same, and pharmaceutical compositions and applications thereof” (priority 2012, dated 2018):
Structures can show the parent of a compound that is named as a salt.

Legend:
[1] = test system: Streptococcus pneumoniae (PISP: ATCC 49619); experiment: In vitro antibacterial activity, agar two times dilution method, MIC; type: cell-based; settings: for MIC Values of Compounds, Streptococcus pneumoniae: agar dilution, PISP ATCC 49619; for activity against streptococcus pneumoniae relative to vancomycin: compared with positive control vancomycin
Text: (§1) Testing results of in vitro antibacterial activity of some target compounds of the present invention are as follows:
(§2) Drugs: firstly being dissolved in DMSO, and then being diluted to an appropriate concentration with sterile water, and afterwards successively being diluted for twice.
(§3) Determination: referencing the standard of CSSI 2008 version, using a agar two times dilution method, determine the minimum inhibitory concentration (MIC values).
(§4) Feces enterococci (VSE clinical isolates: MEFA 0039); Streptococcus pneumoniae (PISP: ATCC 49619).
(§5) 3. Positive Control Drug is Vancomycin Hydrochloride.

[2] = test system: Feces enterococci (VSE clinical isolates: MEFA 0039); experiment: as above; type: cell-based; settings: for MIC Values of Compounds, Enterococci: agar dilution, VSE clinical isolate MEFA 0039
Text: as §1, §2, §3, §4, §5

| Compound | MIC Values of Compounds, Streptococcus pneumoniae [1] [µg/mL] | MIC Values of Compounds, Enterococci [2] [µg/mL] | activity against streptococcus pneumoniae relative to vancomycin [1] | MIC ([1]; Streptococcus pneumoniae, ATCC49619, read-out: MIC Values of Compounds, Streptococcus pneumoniae) [µg/mL] | MIC ([2]; read-out: MIC Values of Compounds, Enterococci) [µg/mL] |
| --- | --- | --- | --- | --- | --- |
| CNC(CC(C)C)C(=O)NC1C(=O)NC(CC(N)=O)C(=O)NC2C(=O)NC3C(=O)NC(C(=O)NC(C(=O)O)c4cc(O)c(CN5CCOCC5)c(O)c4-c4cc3ccc4O)C(OC3CC(C)(N)C(O)C(C)O3)c3ccc(c(Cl)c3)Oc3cc2cc(c3OC2OC(CO)C(O)C(O)C2OC2CC(C)(N)C(O)C(C)O2)Oc2ccc(cc2Cl)C1O (stereo not drawn) [Compound I2] | 0.063 | 0.5 |  |  |  |
| CCN(CC)Cc1c(O)cc2c(c1O)-c1cc(ccc1O)C1NC(=O)C3NC(=O)C(CC(N)=O)NC(=O)C(N4CN(C)C(CC(C)C)C4=O)C(O)c4ccc(c(Cl)c4)Oc4cc3cc(c4OC3OC(CO)C(O)C(O)C3OC3CC(C)(NCc4ccc(OC)cc4)C(O)C(C)O3)Oc3ccc(cc3Cl)C(OC3CC(C)(N)C(O)C(C)O3)C(NC1=O)C(=O)NC2C(=O)O (stereo not drawn) [II8] | 0.25 | 1 |  |  |  |
| CCCCNCc1c(O)cc2c(c1O)-c1cc(ccc1O)C1NC(=O)C3NC(=O)C(CC(N)=O)NC(=O)C(NC(=O)C(CC(C)C)NC)C(O)c4ccc(c(Cl)c4)Oc4cc3cc(c4OC3OC(CO)C(O)C(O)C3OC3CC(C)(NCc4ccc(Br)cc4)C(O)C(C)O3)Oc3ccc(cc3Cl)C(OC3CC(C)(N)C(O)C(C)O3)C(NC1=O)C(=O)NC2C(=O)O (stereo not drawn) [Compound I11] | 0.25 | 1 |  |  |  |
| CC(C)CC1C(=O)N(C2C(=O)NC(CC(N)=O)C(=O)NC3C(=O)NC4C(=O)NC(C(=O)NC(C(=O)O)c5cc(O)c(CN6CCOCC6)c(O)c5-c5cc4ccc5O)C(OC4CC(C)(N)C(O)C(C)O4)c4ccc(c(Cl)c4)Oc4cc3cc(c4OC3OC(CO)C(O)C(O)C3OC3CC(C)(NCc4cccc(Br)c4)C(O)C(C)O3)Oc3ccc(cc3Cl)C2O)CN1C (stereo not drawn) [II6] | 0.25 | 2 |  |  |  |
| CNC(CC(C)C)C(=O)NC1C(=O)NC(CC(N)=O)C(=O)NC2C(=O)NC3C(=O)NC(C(=O)NC(C(=O)O)c4cc(O)c(CN5CCOCC5)c(O)c4-c4cc3ccc4O)C(OC3CC(C)(N)C(O)C(C)O3)c3ccc(c(Cl)c3)Oc3cc2cc(c3OC2OC(CO)C(O)C(O)C2OC2CC(C)(NCc3ccc(Br)cc3)C(O)C(C)O2)Oc2ccc(cc2Cl)C1O (stereo not drawn) [Compound I9] | ≤0.031 | 0.25 | more four times than vancomycin |  |  |
| CCCCCCCCCCNC1(C)CC(OC2c3ccc(c(Cl)c3)Oc3cc4cc(c3OC3OC(CO)C(O)C(O)C3OC3CC(C)(NCCCCCCCCCC)C(O)C(C)O3)Oc3ccc(cc3Cl)C(O)C(NC(=O)C(CC(C)C)N(C)CCCCCCCCCC)C(=O)NC(CC(N)=O)C(=O)NC4C(=O)NC3C(=O)NC2C(=O)NC(C(=O)O)c2cc(O)c(CNCCCC)c(O)c2-c2cc3ccc2O)OC(C)C1O (stereo not drawn) [Compound I4] | >8 | >8 |  |  |  |
| CN[C@H](CC(C)C)C(=O)N[C@H]1C(=O)N[C@@H](CC(N)=O)C(=O)N[C@H]2C(=O)N[C@H]3C(=O)N[C@H](C(=O)N[C@H](C(=O)O)c4cc(O)cc(O)c4-c4cc3ccc4O)[C@H](O)c3ccc(c(Cl)c3)Oc3cc2cc(c3O[C@@H]2O[C@H](CO)[C@@H](O)[C@H](O)[C@H]2O[C@H]2C[C@](C)(N)[C@H](O)[C@H](C)O2)Oc2ccc(cc2Cl)[C@H]1O [vancomycin hydrochloride, reference compound] |  |  |  | 0.125 | 0.25 |
| CNC(CC(C)C)C(=O)NC1C(=O)NC(CC(N)=O)C(=O)NC2C(=O)NC3C(=O)NC(C(=O)NC(C(=O)O)c4cc(O)c(CN5CCOCC5)c(O)c4-c4cc3ccc4O)C(OC3CC(C)(N)C(O)C(C)O3)c3ccc(c(Cl)c3)Oc3cc2cc(c3OC2OC(CO)C(O)C(O)C2OC2CC(C)(NCc3ccc(C(C)C)cc3)C(O)C(C)O2)Oc2ccc(cc2Cl)C1O (stereo not drawn) [Compound I13] | 0.25 | 1 |  |  |  |
| CC(C)CC1C(=O)N(C2C(=O)NC(CC(N)=O)C(=O)NC3C(=O)NC4C(=O)NC(C(=O)NC(C(=O)O)c5cc(O)c(CN6CCOCC6)c(O)c5-c5cc4ccc5O)C(OC4CC(C)(N)C(O)C(C)O4)c4ccc(c(Cl)c4)Oc4cc3cc(c4OC3OC(CO)C(O)C(O)C3OC3CC(C)(NCc4ccc(C(C)C)cc4)C(O)C(C)O3)Oc3ccc(cc3Cl)C2O)CN1C (stereo not drawn) [II9] | 0.25 | 1 |  |  |  |
| CCCCNCc1c(O)cc2c(c1O)-c1cc(ccc1O)C1NC(=O)C3NC(=O)C(CC(N)=O)NC(=O)C(N4CN(C)C(CC(C)C)C4=O)C(O)c4ccc(c(Cl)c4)Oc4cc3cc(c4OC3OC(CO)C(O)C(O)C3OC3CC(C)(NCc4ccccc4Br)C(O)C(C)O3)Oc3ccc(cc3Cl)C(OC3CC(C)(N)C(O)C(C)O3)C(NC1=O)C(=O)NC2C(=O)O (stereo not drawn) [II3] | 0.25 | 2 |  |  |  |
| CCN(CC)Cc1c(O)cc2c(c1O)-c1cc(ccc1O)C1NC(=O)C3NC(=O)C(CC(N)=O)NC(=O)C(NC(=O)C(CC(C)C)NC)C(O)c4ccc(c(Cl)c4)Oc4cc3cc(c4OC3OC(CO)C(O)C(O)C3OC3CC(C)(NCc4ccc(Br)cc4)C(O)C(C)O3)Oc3ccc(cc3Cl)C(OC3CC(C)(N)C(O)C(C)O3)C(NC1=O)C(=O)NC2C(=O)O (stereo not drawn) [Compound I10] | 0.25 | 2 |  |  |  |
| CNC(CC(C)C)C(=O)NC1C(=O)NC(CC(N)=O)C(=O)NC2C(=O)NC3C(=O)NC(C(=O)NC(C(=O)O)c4cc(O)c(CNCP(=O)(O)O)c(O)c4-c4cc3ccc4O)C(OC3CC(C)(N)C(O)C(C)O3)c3ccc(c(Cl)c3)Oc3cc2cc(c3OC2OC(CO)C(O)C(O)C2OC2CC(C)(N)C(O)C(C)O2)Oc2ccc(cc2Cl)C1O (stereo not drawn) [Compound I1] | 0.125 | 0.5 |  |  |  |
| CCN(CC)Cc1c(O)cc2c(c1O)-c1cc(ccc1O)C1NC(=O)C3NC(=O)C(CC(N)=O)NC(=O)C(NC(=O)C(CC(C)C)NC)C(O)c4ccc(c(Cl)c4)Oc4cc3cc(c4OC3OC(CO)C(O)C(O)C3OC3CC(C)(NCc4ccccc4Br)C(O)C(C)O3)Oc3ccc(cc3Cl)C(OC3CC(C)(N)C(O)C(C)O3)C(NC1=O)C(=O)NC2C(=O)O (stereo not drawn) [Compound I6] | 0.25 | 1 |  |  |  |
| CNC(CC(C)C)C(=O)NC1C(=O)NC(CC(N)=O)C(=O)NC2C(=O)NC3C(=O)NC(C(=O)NC(C(=O)O)c4cc(O)c(CN5CCOCC5)c(O)c4-c4cc3ccc4O)C(OC3CC(C)(N)C(O)C(C)O3)c3ccc(c(Cl)c3)Oc3cc2cc(c3OC2OC(CO)C(O)C(O)C2OC2CC(C)(NCc3ccccc3Br)C(O)C(C)O2)Oc2ccc(cc2Cl)C1O (stereo not drawn) [Compound I5] | 0.125 | 0.25 |  |  |  |
| CCCCNCc1c(O)cc2c(c1O)-c1cc(ccc1O)C1NC(=O)C3NC(=O)C(CC(N)=O)NC(=O)C(NC(=O)C(CC(C)C)NC)C(O)c4ccc(c(Cl)c4)Oc4cc3cc(c4OC3OC(CO)C(O)C(O)C3OC3CC(C)(NCc4ccc(C(C)C)cc4)C(O)C(C)O3)Oc3ccc(cc3Cl)C(OC3CC(C)(N)C(O)C(C)O3)C(NC1=O)C(=O)NC2C(=O)O (stereo not drawn) [Compound I14] | ≤0.031 | 0.5 | more four times than vancomycin |  |  |
| CCCCNCc1c(O)cc2c(c1O)-c1cc(ccc1O)C1NC(=O)C3NC(=O)C(CC(N)=O)NC(=O)C(N4CN(C)C(CC(C)C)C4=O)C(O)c4ccc(c(Cl)c4)Oc4cc3cc(c4OC3OC(CO)C(O)C(O)C3OC3CC(C)(NCc4cccc(Br)c4)C(O)C(C)O3)Oc3ccc(cc3Cl)C(OC3CC(C)(N)C(O)C(C)O3)C(NC1=O)C(=O)NC2C(=O)O (stereo not drawn) [II5] | 0.25 | 1 |  |  |  |
| CCCCNCc1c(O)cc2c(c1O)-c1cc(ccc1O)C1NC(=O)C3NC(=O)C(CC(N)=O)NC(=O)C(N4CN(C)C(CC(C)C)C4=O)C(O)c4ccc(c(Cl)c4)Oc4cc3cc(c4OC3OC(CO)C(O)C(O)C3OC3CC(C)(N)C(O)C(C)O3)Oc3ccc(cc3Cl)C(OC3CC(C)(N)C(O)C(C)O3)C(NC1=O)C(=O)NC2C(=O)O (stereo not drawn) [II1] | 0.125 | 0.25 |  |  |  |
| CCN(CC)Cc1c(O)cc2c(c1O)-c1cc(ccc1O)C1NC(=O)C3NC(=O)C(CC(N)=O)NC(=O)C(N4CN(C)C(CC(C)C)C4=O)C(O)c4ccc(c(Cl)c4)Oc4cc3cc(c4OC3OC(CO)C(O)C(O)C3OC3CC(C)(NCc4ccccc4Br)C(O)C(C)O3)Oc3ccc(cc3Cl)C(OC3CC(C)(N)C(O)C(C)O3)C(NC1=O)C(=O)NC2C(=O)O (stereo not drawn) [II2] | 0.5 | 2 |  |  |  |
| CCN(CC)Cc1c(O)cc2c(c1O)-c1cc(ccc1O)C1NC(=O)C3NC(=O)C(CC(N)=O)NC(=O)C(N4CN(C)C(CC(C)C)C4=O)C(O)c4ccc(c(Cl)c4)Oc4cc3cc(c4OC3OC(CO)C(O)C(O)C3OC3CC(C)(NCc4cccc(Br)c4)C(O)C(C)O3)Oc3ccc(cc3Cl)C(OC3CC(C)(N)C(O)C(C)O3)C(NC1=O)C(=O)NC2C(=O)O (stereo not drawn) [II4] | 0.25 | 2 |  |  |  |
| CNC(CC(C)C)C(=O)NC1C(=O)NC(CC(N)=O)C(=O)NC2C(=O)NC3C(=O)NC(C(=O)NC(C(=O)O)c4cc(O)c(CN5CCOCC5)c(O)c4-c4cc3ccc4O)C(OC3CC(C)(N)C(O)C(C)O3)c3ccc(c(Cl)c3)Oc3cc2cc(c3OC2OC(CO)C(O)C(O)C2OC2CC(C)(NCc3ccc(OC)cc3)C(O)C(C)O2)Oc2ccc(cc2Cl)C1O (stereo not drawn) [Compound I12] | 1 | 2 |  |  |  |
